This is an account of results in ChEMBL document CHEMBL1201862, “PubChem BioAssay data set” (2004).

Test [1] in a line: Luminescence Cell-Based Dose Response HTS to Identify Inhibitors of 5'UTR Stem-Loop Driven Prion Protein mRNA Translation in H4 Neuroglioblastoma Cells. [Related pubchem assays: 1827 (Project Summary), 1813 (Primary HTS)]. The format is functional.
Test [2] has as its system BJ. Nature of the test: cytotoxicity toward BJ-TERT-LT-ST fibroblasts, dose response, cell-based, RAS-independent, luminescence (AID 1935).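 Also: BJ fibroblasts immortalized with TERT plus LT and ST oncogenes.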 Conditions: Homo sapiens. Format: functional.
Test [3] in a line: inhibitors of firefly luciferase expression or activity, dose response, H4 neuroglioma cells, luminescence (AID 1990). Format: functional, cell-based.
The subject of test [4] is INS1. Nature of the test: beta cell apoptosis inhibitors, cytokine rescue, dose response, luminescence, retest (AID 449756).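 Also: cell death triggered by IL-1 beta plus TNF-alpha plus IFN-gamma mixture; protective hits raise ATP signal compared with cytokine alone wells.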 The format is functional, cell-based. Conditions: Rattus norvegicus.
A short description of test [5]: cytotoxicity toward DRD oncogenic fibroblasts, dose response, cell-based, non-viral oncogenic, luminescence (AID 1934). The format is functional. To be noted: Homo sapiens.
A short description of test [6]: Luminescence-based dose response cell-based high throughput screening assay for cytotoxic compounds using the IEC-6 intestinal epithelial cell line. [Related pubchem assays: 1858 (Summary AID.), 1825 (Counterscreen.), 1907 (Confirmation screen.)]. The format is functional. (In general: The purpose of a counterscreen is to sort out artefacts and off-target activity.)

Test [7] has as its target T1, Neuropeptide Y receptor type 2 (Homo sapiens, UniProt P49146).
T1 sequence (P49146 whole entry): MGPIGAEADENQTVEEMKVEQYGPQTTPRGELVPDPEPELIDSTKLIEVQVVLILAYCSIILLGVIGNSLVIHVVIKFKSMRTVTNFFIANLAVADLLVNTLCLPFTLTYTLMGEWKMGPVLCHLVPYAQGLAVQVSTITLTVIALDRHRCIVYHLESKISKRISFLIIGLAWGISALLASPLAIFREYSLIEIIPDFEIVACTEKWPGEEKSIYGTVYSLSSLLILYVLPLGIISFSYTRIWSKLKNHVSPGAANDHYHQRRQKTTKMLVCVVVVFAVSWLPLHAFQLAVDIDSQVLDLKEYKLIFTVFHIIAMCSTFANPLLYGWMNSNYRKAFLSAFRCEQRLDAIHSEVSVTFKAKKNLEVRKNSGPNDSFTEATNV
The test is described as follows: Fluorescence-based cell-based high-throughput dose response assay for agonists of NPY-Y2. [Related pubchem assays: 1703 (Screening assay (CNGC inhibitors).), 1359 (Screening assay (NPY-Y2 potentiators or agonists).), 1304 (Screening assay (NPY-Y1 potentiators or agonists).), 1710 (Screening assay (NPY-Y2 agonists).), 1791 (Summary AID.)]. The format is functional.

Test [8] is described as follows: HEK293T cytotoxicity, dose response, cytotoxicity control for miR-122 modulator project, cell-based, inhibitor set, cherry-pick, set 2 (AID 720697). The format is functional.
The target in test [9] is Latent membrane protein 1 (Human herpesvirus 4 (strain B95-8), UniProt P03230). Nature of the test: TES1-eGFP NF-kB reporter inhibition versus Tet-On dsRED, dose response, selectivity assay for LMP1 NF-kB inhibitor project, imaging, HEK293T, dual-color eGFP/dsRED, cherry-picks (AID 588398). The format is functional, cell-based.
Test [10] is described as follows: cytotoxicity in HEK-293T cells, dose response, cytotoxicity control for TCR NF-kB inhibitor project, luminescence, T-cell screen hits (AID 489026).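 Also: cells exposed to compound about 14 hours before the viability readout.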 Format: functional, cell-based.
The test system of test [11] is HEK293. The test is described as follows: Fluorescence-based counterscreen for potentiators or agonists of NPY-Y2: cell-based high-throughput dose response assay to identify inhibitors of cyclic nucleotide gated ion channel (CNGC) activity. In this assay, the parental HEK293 cell line transfected with a cyclic-nucleotide gated ion channel (CNGC)-based cAMP sensor is used to measure inhibition of isoproterenol-induced CNGC activity by test compound. Format: functional. To be noted: Homo sapiens.

For test [12], the system named is BJ. The test is described as follows: cells. The format is functional, cell-based. To be noted: Homo sapiens.
A short description of test [13]: miR-122 activators in hepatoma reporter cells, dose response, cell-based, Huh7 psiCHECK-miR122, Renilla luciferase, cherry-picked (AID 651956).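 Also: huh7 hepatoma cells stably carrying a psiCHECK-2 miR-122 sensor plasmid; renilla luciferase signal reporting endogenous miR-122 activity after 48 h compound exposure.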 Format: functional.
The test system of test [14] is BJ. The test is described as follows: cytotoxicity toward Ras-transformed BJeLR fibroblasts, dose response, cell-based, alamar blue fluorescence, cherrypicked samples (AID 2631).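 Also: confirmatory dose-response assay in RAS-dependent BJ fibroblasts engineered with TERT, LT and ST, with cytotoxicity read by fluorescence.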 To be noted: Homo sapiens. The format is functional. Background: The colour change of resazurin is a common sign of viable cells or microbes.
Test [15] has as its target T2, Neuropeptide Y receptor type 1 (Homo sapiens, UniProt P25929).
T2 sequence (P25929 whole entry): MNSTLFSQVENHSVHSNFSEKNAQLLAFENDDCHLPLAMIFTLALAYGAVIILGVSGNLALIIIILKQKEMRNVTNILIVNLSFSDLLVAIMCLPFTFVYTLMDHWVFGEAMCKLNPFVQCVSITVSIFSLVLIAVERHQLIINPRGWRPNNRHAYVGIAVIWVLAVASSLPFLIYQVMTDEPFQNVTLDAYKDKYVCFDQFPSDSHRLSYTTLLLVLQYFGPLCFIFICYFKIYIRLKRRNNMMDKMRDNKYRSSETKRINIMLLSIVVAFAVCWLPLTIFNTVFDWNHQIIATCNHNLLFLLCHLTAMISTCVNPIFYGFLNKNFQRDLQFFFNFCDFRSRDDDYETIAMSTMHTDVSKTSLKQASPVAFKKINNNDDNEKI
Nature of the test: Fluorescence-based counterscreen for agonists of NPY-Y2: cell-based high-throughput dose response assay for agonists of NPY-Y1. The format is functional.

Test [16] can be described thus: HEK293T cytotoxicity, dose response, cytotoxicity control for miR-122 modulator project, cell-based, activator set, cherry-pick (AID 720690).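 Also: HEK293T human cells scored for general mammalian cytotoxicity.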 The format is functional.
Test [17] relates to HEK293. The test is described as follows: inhibitors of LMP1-driven NF-kB reporter, dose response, cell-based, HEK293, luciferase, cherry-pick (AID 588343). The format is functional. Conditions: Homo sapiens.
Test [18] deals with BJ. The test is described as follows: cytotoxicity toward BJ-TERT fibroblasts, dose response, cell-based, RAS-independent, luminescence (AID 1933). Format: functional. To be noted: Homo sapiens.
A short description of test [19]: inhibitors of SNCA 5'UTR-driven reporter translation, confirmation, H4 neuroglioma cells, luminescence (AID 1988). Format: functional, cell-based.
In test [20] the target is Sphingosine 1-phosphate receptor 2 (Homo sapiens, UniProt O95136). The test is described as follows: Dose Response Cell Based Assay for Antagonists of the S1P2 Receptor. [Related pubchem assays: 856, 736 ]. The format is functional.
Test [21] concerns the target T3, Endoribonuclease toxin MazF (Escherichia coli K-12, UniProt P0AE70). Nature of the test: fluorescent RNA oligo signal without MazF, dose response, counter-screen for MazEF activator project, biochemical, fluorescence, single-stranded RNase substrate (AID 588502). The format is functional.
Test [22] concerns the target T3, Endoribonuclease toxin MazF. Nature of the test: MazF toxin RNase activators, dose response, biochemical, fluorescence, single-stranded RNA substrate, uHTS hits (AID 588481). The format is functional.
Test [23] has as its target Peroxisome proliferator-activated receptor gamma/Nuclear receptor coactivator 3 (Homo sapiens, UniProt P37231). Format: functional.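 Also: agonist potency for raising coactivator recruitment to the receptor.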
Test [24] deals with Peroxisome proliferator-activated receptor gamma/Nuclear receptor coactivator 2 (Homo sapiens, UniProt P37231). The format is functional.
Test [25] deals with Streptococcus sp. 'group A'. Nature of the test: growth inhibition of control SK(-) GAS strain, dose response, counter-screen for streptokinase expression inhibitor project, luminescence, kanamycin, BacTiterGlo, confirmation (AID 1900). Format: functional, organism-based.
Test [26] concerns the target Peroxisome proliferator-activated receptor gamma/Nuclear receptor coactivator 1 (Homo sapiens, UniProt P37231). The format is functional.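 Also: agonist potency as compounds enhance coactivator SRC-1 recruitment to PPARgamma.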
A further test concerns Streptococcus. The test is described as follows: Group A Streptococcus viability loss, dose response, counter-screen for streptokinase expression inhibitor project, luminescence, BacTiterGlo (AID 1915).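 Also: potency for reduction of bacterial viability or growth.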 The format is functional, organism-based.
Test [27] deals with Dual specificity protein kinase CLK1 (Homo sapiens, UniProt P49759). The test is described as follows: CLK1 kinase inhibitors, off-target check, dose response, selectivity assay for Dyrk1A inhibitor project, biochemical, cherry-picked samples (AID 588811).
Test [28] addresses Cyclin-dependent kinase 2 (Homo sapiens, UniProt P24941). The test is described as follows: CDK2 kinase inhibitors, off-target check, dose response, selectivity assay for Dyrk1A inhibitor project, biochemical, cherry-picked samples (AID 602127).
The test system of test [29] is INS1. Nature of the test: inhibitors of cytokine-induced nitrite release, dose response, cell-based, Griess absorbance, INS-1E, dry powder, set 2 (AID 488868). Conditions: Rattus norvegicus. The format is functional. A general note: Nitrite, measured by Griess reagent, commonly stands in for NO production.

Activity calls are given as the source filed them. Bounds are passed on as bounds.

T3 sequence (P0AE70 whole entry): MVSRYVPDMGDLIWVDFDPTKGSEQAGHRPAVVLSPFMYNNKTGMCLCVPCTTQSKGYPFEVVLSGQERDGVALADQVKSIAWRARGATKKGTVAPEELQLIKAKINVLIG
Chain of Dual specificity protein kinase CLK1 (P49759 whole entry): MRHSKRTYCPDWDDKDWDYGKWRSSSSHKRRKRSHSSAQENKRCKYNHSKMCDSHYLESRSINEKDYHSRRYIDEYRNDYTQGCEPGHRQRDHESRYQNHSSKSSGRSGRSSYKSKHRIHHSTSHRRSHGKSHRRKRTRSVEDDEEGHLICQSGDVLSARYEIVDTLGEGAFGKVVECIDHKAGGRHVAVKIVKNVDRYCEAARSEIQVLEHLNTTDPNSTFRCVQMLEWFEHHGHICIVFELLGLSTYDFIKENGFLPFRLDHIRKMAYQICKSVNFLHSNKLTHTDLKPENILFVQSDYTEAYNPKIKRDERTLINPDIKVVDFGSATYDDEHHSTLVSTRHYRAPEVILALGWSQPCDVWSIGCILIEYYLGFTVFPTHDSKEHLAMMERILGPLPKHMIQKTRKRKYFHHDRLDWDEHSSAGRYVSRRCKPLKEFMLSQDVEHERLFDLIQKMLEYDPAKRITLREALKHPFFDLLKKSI
Chain of Latent membrane protein 1 (P03230 whole entry): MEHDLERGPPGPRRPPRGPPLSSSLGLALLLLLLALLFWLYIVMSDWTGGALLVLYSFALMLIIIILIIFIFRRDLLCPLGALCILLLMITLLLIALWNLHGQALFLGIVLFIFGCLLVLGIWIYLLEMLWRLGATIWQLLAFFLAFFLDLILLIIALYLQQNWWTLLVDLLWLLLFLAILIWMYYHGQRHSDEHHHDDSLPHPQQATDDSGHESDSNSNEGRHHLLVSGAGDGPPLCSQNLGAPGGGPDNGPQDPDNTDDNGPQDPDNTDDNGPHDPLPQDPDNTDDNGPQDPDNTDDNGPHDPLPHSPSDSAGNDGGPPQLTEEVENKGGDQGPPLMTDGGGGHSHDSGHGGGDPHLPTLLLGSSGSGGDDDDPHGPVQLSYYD
Chain of Sphingosine 1-phosphate receptor 2 (O95136 whole entry): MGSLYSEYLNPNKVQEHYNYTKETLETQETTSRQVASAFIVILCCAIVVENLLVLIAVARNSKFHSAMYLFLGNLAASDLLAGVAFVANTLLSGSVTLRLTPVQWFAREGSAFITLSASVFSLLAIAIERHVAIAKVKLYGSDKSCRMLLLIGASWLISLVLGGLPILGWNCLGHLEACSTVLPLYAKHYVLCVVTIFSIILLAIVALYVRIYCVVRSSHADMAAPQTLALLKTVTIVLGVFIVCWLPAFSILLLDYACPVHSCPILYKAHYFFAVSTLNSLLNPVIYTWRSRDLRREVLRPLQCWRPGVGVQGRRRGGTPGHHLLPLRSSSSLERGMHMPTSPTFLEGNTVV
Chain of Peroxisome proliferator-activated receptor gamma/Nuclear receptor coactivator 2 (P37231 whole entry): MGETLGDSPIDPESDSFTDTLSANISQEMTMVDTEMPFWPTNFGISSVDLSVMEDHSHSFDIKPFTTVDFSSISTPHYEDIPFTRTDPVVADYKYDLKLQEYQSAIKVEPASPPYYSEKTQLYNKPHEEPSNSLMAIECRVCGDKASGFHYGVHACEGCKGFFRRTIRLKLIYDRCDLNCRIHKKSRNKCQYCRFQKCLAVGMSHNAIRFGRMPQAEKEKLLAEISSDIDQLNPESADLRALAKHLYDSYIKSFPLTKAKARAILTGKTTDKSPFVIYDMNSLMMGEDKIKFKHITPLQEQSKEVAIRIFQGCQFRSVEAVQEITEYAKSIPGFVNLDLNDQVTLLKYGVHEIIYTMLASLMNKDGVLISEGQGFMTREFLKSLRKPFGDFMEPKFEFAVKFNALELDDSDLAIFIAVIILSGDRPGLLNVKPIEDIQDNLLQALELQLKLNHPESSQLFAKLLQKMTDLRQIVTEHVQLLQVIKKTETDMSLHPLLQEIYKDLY
Chain of Peroxisome proliferator-activated receptor gamma/Nuclear receptor coactivator 2 (Q15596 whole entry, further chain): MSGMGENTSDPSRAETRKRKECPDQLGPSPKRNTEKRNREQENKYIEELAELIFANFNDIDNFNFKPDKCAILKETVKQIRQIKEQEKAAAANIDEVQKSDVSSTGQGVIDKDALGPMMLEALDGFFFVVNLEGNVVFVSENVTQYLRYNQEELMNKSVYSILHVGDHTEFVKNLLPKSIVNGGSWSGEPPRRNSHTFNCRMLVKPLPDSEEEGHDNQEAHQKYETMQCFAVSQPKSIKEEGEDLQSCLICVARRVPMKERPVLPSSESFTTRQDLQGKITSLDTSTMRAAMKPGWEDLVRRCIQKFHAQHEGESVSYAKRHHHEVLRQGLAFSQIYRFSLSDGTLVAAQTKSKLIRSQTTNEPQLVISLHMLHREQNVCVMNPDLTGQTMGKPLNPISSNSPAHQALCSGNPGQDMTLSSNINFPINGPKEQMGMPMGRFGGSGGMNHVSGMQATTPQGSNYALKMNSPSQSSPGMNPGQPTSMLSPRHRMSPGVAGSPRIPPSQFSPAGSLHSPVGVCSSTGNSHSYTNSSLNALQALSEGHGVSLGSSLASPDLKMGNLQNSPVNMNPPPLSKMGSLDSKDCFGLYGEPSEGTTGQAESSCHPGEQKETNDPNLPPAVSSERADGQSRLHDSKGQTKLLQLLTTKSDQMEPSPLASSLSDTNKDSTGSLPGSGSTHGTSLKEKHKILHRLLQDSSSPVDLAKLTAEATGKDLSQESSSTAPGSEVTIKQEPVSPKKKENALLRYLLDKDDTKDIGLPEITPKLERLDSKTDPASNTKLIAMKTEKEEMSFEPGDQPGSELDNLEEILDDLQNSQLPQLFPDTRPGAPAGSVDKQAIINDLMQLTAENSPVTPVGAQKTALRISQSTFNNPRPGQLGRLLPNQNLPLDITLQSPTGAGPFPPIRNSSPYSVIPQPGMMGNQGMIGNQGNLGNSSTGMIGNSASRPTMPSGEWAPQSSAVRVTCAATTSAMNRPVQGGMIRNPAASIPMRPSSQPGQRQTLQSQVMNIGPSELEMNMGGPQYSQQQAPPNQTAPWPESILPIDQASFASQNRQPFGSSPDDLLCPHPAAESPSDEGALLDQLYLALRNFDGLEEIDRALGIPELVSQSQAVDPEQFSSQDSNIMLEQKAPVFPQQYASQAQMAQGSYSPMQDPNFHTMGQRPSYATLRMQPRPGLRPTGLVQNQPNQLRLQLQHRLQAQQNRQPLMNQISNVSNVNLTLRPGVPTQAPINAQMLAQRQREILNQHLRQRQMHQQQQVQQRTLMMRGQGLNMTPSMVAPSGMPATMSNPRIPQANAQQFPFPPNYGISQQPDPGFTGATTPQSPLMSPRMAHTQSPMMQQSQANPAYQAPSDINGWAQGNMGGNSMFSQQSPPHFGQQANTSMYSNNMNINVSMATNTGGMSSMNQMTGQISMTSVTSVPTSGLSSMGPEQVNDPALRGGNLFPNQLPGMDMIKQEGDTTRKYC

The term EC50 denotes the concentration giving half of the maximal effect. For orientation: AC50 means the concentration giving half of the maximal activity seen. What is called IC50 is the concentration needed to halve the response being measured. Take `O=C(NC(Nc1nc2ccc([N+](=O)[O-])cc2s1)(C(F)(F)F)C(F)(F)F)c1ccccc1`: the EC50 is 7500 nM (active) in test [1]; 2850 nM (inconclusive) with BJ [2]; 394 nM (active) in [3]; 1660 nM (active) in test [5]; 31900 nM (not active) in test [7]; > 35400 nM (not active) in the test with HEK293 [11]. In addition, the EC50 was 1340 nM (active) in the test with BJ [12]; 727 nM (active) in the test on BJ [14]; 35300 nM (not active) in [15]; 1410 nM (active) with BJ [18]; 449 nM (active) in [19]. Besides, the AC50 in the test on INS1 [4] was 298 nM (active); in test [8] it was < 195 nM (active); in test [9], 816 nM (active); in test [13], 1410 nM (active); in test [16], 546 nM (active); in the test on HEK293 [17], 208 nM (active). For the same compound, the IC50 in [6] is 1030 nM (active); in [10], > 80000 nM (inactive); in test [20] it was 682 nM (active).
On to `N#Cc1ccc(-c2ccccc2)nc1SCC(=O)c1cc2ccccc2oc1=O`, for which the EC50 in test [21] is > 99000 nM (inactive); in test [22], > 99000 nM (inactive); in [23] it was 16400 nM (not active); in test [24] it was 13700 nM (not active); in [25], 862 nM (active); in test [26], 15500 nM (not active). Also, the EC50 in the test on Streptococcus is 2220 nM (active).
With `Cc1ccsc1CN(C)c1ncnc2ccc(-c3ccoc3)cc12`, the AC50 in test [27] was 13.8 nM (active); in test [28], 7770 nM (active).
For the compound `C[C@@H]1CN([C@@H](C)CO)C(=O)c2cccc(NS(=O)(=O)c3ccccc3)c2O[C@H]1CN(C)Cc1ccc(C(F)(F)F)cc1`, in the test on INS1 [29], the AC50 was 242000 nM (active).
